Our source for the pest or weed control, plant injury and Corn plant response rating (crop injury, 0 = no effect, 100 = complete kill) values is patent US12077503B2, “Substituted cyclic amides and their use as herbicides” (FMC CORPORATION, priority 2015, dated 2024).

Common to all, as to type: in vivo
The subject of test [1] is blackgrass (Alopecurus myosuroides). Briefly: Test A postemergence. The conditions noted are these: Alopecurus myosuroides, post-emergence, 240 h; for pest or weed control at 125 g/ha: 125 g ai/ha. In outline:
(§1)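 Ratings of 0 (no effect) to 100 (complete control) come from visual comparison with untreated controls roughly 10 d after treatment. Test chemicals, formulated in a non-phytotoxic solvent mixture with surfactant, were applied either as a preemergence directed soil spray on seeded soil or postemergence to one- to two-leaf plants 2 to 10 cm tall.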

In a further test the test system is corn (Zea mays). Briefly: Test A postemergence. Conditions: Zea mays, post-emergence, 240 h. Summed up:
as §1

The test system of another test is Kochia (Kochia scoparia). Put plainly: Test A postemergence. Conditions: Bassia scoparia, post-emergence, 240 h; for pest or weed control at 125 g/ha: 125 g ai/ha. In outline: as §1
Test [2] deals with giant foxtail (Setaria faberii). Put plainly: Test A postemergence. Conditions: Setaria faberi, post-emergence, 240 h; for pest or weed control at 125 g/ha: 125 g ai/ha. In outline:
as §1

Test [3] has as its system barnyardgrass (Echinochloa crus-galli). Briefly: Test A postemergence. The conditions noted are these: Echinochloa crus-galli, post-emergence, 240 h; for pest or weed control at 125 g/ha: 125 g ai/ha. Summed up: as §1
Test [4] relates to pigweed (Amaranthus retroflexus). Briefly: Test A postemergence. Conditions: Amaranthus retroflexus, post-emergence, 240 h; for pest or weed control at 125 g/ha: 125 g ai/ha. In outline: as §1
Test [5] deals with Galium (catchweed bedstraw, Galium aparine). Briefly: Test A postemergence. Conditions: Galium, post-emergence, 240 h; for pest or weed control at 125 g/ha: 125 g ai/ha. Summed up: as §1
Test [6] deals with wheat (Triticum aestivum). Briefly: Test A postemergence. The conditions noted are these: Triticum aestivum, post-emergence, 240 h; for plant injury at 125 g/ha: 125 g ai/ha. Summed up:
as §1

Test [7] deals with ryegrass, Italian (Italian ryegrass, Lolium multiflorum). Put plainly: Test A postemergence. The conditions noted are these: Lolium multiflorum, post-emergence, 240 h; for pest or weed control at 125 g/ha: 125 g ai/ha. In outline:
as §1

Test [8] has as its system ragweed (common ragweed, Ambrosia elatior). Briefly: Test A postemergence. The conditions noted are these: Ambrosia artemisiifolia, post-emergence, 240 h; for pest or weed control at 125 g/ha: 125 g ai/ha. In outline: as §1
For test [9], the system named is sedge, umbrella (small-flower umbrella sedge, Cyperus difformis). Briefly: Test B flooded paddy test. The conditions noted are these: Cyperus difformis, 250 g ai/ha, Flood, read-out: Sedge, Umbrella plant response rating. In outline: (§2)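 Visual ratings (0 none to 100 complete control) are relative to untreated plants, taken 13–15 d after treatment in a greenhouse. Test material went straight into floodwater standing 3 cm above the soil, kept constant, on plants at the 2-leaf stage.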

Another test concerns rice (Oryra sativa). Put plainly: Test B flooded paddy test. Conditions: Oryza sativa, 250 g ai/ha, Flood, read-out: Rice plant response rating. Summed up:
as §2

Test [10] relates to ducksalad (Heteranthera limosa). Briefly: Test B flooded paddy test. The conditions noted are these: Heteranthera limosa, 250 g ai/ha, Flood, read-out: Ducksalad plant response rating. In outline: as §2
Test [11] has as its system barnyardgrass (Echinochloa crus-galli). Put plainly: Test B flooded paddy test. Conditions: Echinochloa crus-galli, 250 g ai/ha, Flood, read-out: Barnyardgrass plant response rating. Summed up:
as §2

Test [12] deals with pigweed (Amaranthus retroflexus). Put plainly: Test A preemergence. The conditions noted are these: Amaranthus retroflexus, pre-emergence, 240 h; for pest or weed control at 125 g/ha: 125 g ai/ha, 0 to 100 scale where 0 is no effect and 100 is complete control; for pest or weed control at 500 g/ha: 500 g ai/ha.
[13] abbreviates: 0 to 100 scale where 0 is no effect and 100 is complete control.
[14] abbreviates: scale of 0 to 100 where 0 is no effect and 100 is complete control.

Where two headings read alike, the source gives them in different places.

On to `CSc1ccccc1NC(=O)C1C(=O)NCC1C=C(C)C` (stereo not drawn) [Compound 1055], for which the pest or weed control at 125 g/ha was 0% in [1] (postemergence, visual injury on 0 to 100 scale (0 no effect, 100 complete control), approx. 10 d, read-out: Blackgrass plant response rating); 0% in the test on Kochia (Kochia scoparia) (postemergence, visual injury on 0 to 100 scale (0 no effect, 100 complete control), approx. 10 d, read-out: Kochia plant response rating); 0% in [2] (postemergence, visual injury on 0 to 100 scale (0 no effect, 100 complete control), approx. 10 d, read-out: Foxtail, Giant plant response rating); 0% in [3] (postemergence, visual injury on 0 to 100 scale (0 no effect, 100 complete control), approx. 10 d, read-out: Barnyardgrass plant response rating); 0% in test [4] (postemergence, visual injury on 0 to 100 scale (0 no effect, 100 complete control), approx. 10 d, read-out: Pigweed plant response rating); 0% in [5] (postemergence, visual injury on 0 to 100 scale (0 no effect, 100 complete control), approx. 10 d, read-out: Galium plant response rating). Also, the pest or weed control at 125 g/ha amounted to 0% in test [7] (postemergence, visual injury on 0 to 100 scale (0 no effect, 100 complete control), approx. 10 d, read-out: Ryegrass, Italian plant response rating); 0% in [8] (postemergence, visual injury on 0 to 100 scale (0 no effect, 100 complete control), approx. 10 d, read-out: Ragweed plant response rating); 0% in [12] (preemergence, approx. 10 d, read-out: Pigweed plant response rating). In addition, the pest or weed control at 500 g/ha is 0% in [1] (500 g ai/ha, postemergence, 0 to 100 scale, 0 is no effect, 100 is complete control, read-out: Blackgrass plant response rating); 0% in the test with Kochia (Kochia scoparia) (500 g ai/ha, postemergence, 0 to 100 scale, 0 is no effect, 100 is complete control, read-out: Kochia plant response rating); 0% in test [2] (500 g ai/ha, postemergence, 0 to 100 scale, 0 is no effect, 100 is complete control, read-out: Foxtail, Giant plant response rating); 0% in [3] (500 g ai/ha, postemergence, 0 to 100 scale, 0 is no effect, 100 is complete control, read-out: Barnyardgrass plant response rating); 0% in test [4] (500 g ai/ha, postemergence, 0 to 100 scale, 0 is no effect, 100 is complete control, read-out: Pigweed plant response rating); 0% in [5] (500 g ai/ha, postemergence, 0 to 100 scale, 0 is no effect, 100 is complete control, read-out: Galium plant response rating). Besides, the pest or weed control at 500 g/ha in test [7] (500 g ai/ha, postemergence, 0 to 100 scale, 0 is no effect, 100 is complete control, read-out: Ryegrass, Italian plant response rating) amounted to 0%; in [8] (500 g ai/ha, postemergence, 0 to 100 scale, 0 is no effect, 100 is complete control, read-out: Ragweed plant response rating), 0%; in test [12] (preemergence, visual injury rating about 10 d after treatment, 0 to 100 scale (0 no effect, 100 complete control), read-out: Pigweed plant response rating), 0%. Also, the plant injury at 125 g/ha in the test on corn (Zea mays) (125 g ai/ha, postemergence, visual injury on 0 to 100 scale (0 no effect, 100 complete control), approx. 10 d, read-out: Corn plant response rating) is 0%; in [6] (postemergence, visual injury on 0 to 100 scale (0 no effect, 100 complete control), approx. 10 d, read-out: Wheat plant response rating), 0%. Further, the plant injury at 500 g/ha with corn (Zea mays) (500 g ai/ha, postemergence, 0 to 100 scale, 0 is no effect, 100 is complete control, read-out: Corn plant response rating) amounted to 0%; in test [6] (500 g ai/ha, postemergence, 0 to 100 scale, 0 is no effect, 100 is complete control, read-out: Wheat plant response rating) it was 0%. Also, the pest or weed control at 250 g/ha in test [9] (setting [13]) amounted to 0%; in the test on rice (Oryra sativa) (setting [13]) it was 0%; in test [10] (setting [13]), 30%; in test [11] (setting [13]), 0%.

For the compound `CN1CC[C@H](c2ccc(F)cc2)[C@@H](C(=O)Nc2ccccc2F)C1=O` [Compound 917], the pest or weed control at 125 g/ha in [1] (Postemergence, visual injury after approximately 10 d, 0 to 100 scale where 0 is no effect and 100 is complete control, read-out: Plant response rating, Blackgrass) stood at 0%; with Kochia (Kochia scoparia) (Postemergence, visual injury after approximately 10 d, 0 to 100 scale where 0 is no effect and 100 is complete control, read-out: Plant response rating, Kochia), 0%; in test [2] (Postemergence, visual injury after approximately 10 d, 0 to 100 scale where 0 is no effect and 100 is complete control, read-out: Plant response rating, Foxtail, Giant), 0%; in [3] (Postemergence, visual injury after approximately 10 d, 0 to 100 scale where 0 is no effect and 100 is complete control, read-out: Plant response rating, Barnyardgrass), 0%; in test [4] (Postemergence, visual injury after approximately 10 d, 0 to 100 scale where 0 is no effect and 100 is complete control, read-out: Plant response rating, Pigweed), 0%; in test [5] (Postemergence, visual injury after approximately 10 d, 0 to 100 scale where 0 is no effect and 100 is complete control, read-out: Plant response rating, Galium) it was 0%. Moreover, the pest or weed control at 125 g/ha in [7] (Postemergence, visual injury after approximately 10 d, 0 to 100 scale where 0 is no effect and 100 is complete control, read-out: Plant response rating, Ryegrass, Italian) came out at 0%; in test [8] (Postemergence, visual injury after approximately 10 d, 0 to 100 scale where 0 is no effect and 100 is complete control, read-out: Plant response rating, Ragweed) it was 0%; in test [12] (preemergence, read-out: Pigweed plant response rating) it was 0%. Moreover, the Corn plant response rating (crop injury, 0 = no effect, 100 = complete kill) at 125 g/ha in the test with corn (Zea mays) (125 g ai/ha, Postemergence, visual injury after approximately 10 d, 0 to 100 scale where 0 is no effect and 100 is complete control) came to 0%. Also, in [6] (Postemergence, visual injury after approximately 10 d, 0 to 100 scale where 0 is no effect and 100 is complete control, read-out: Plant response rating, Wheat), the plant injury at 125 g/ha came to 0%. Besides, the pest or weed control at 250 g/ha in test [9] (setting [14]) was determined as 0%; with rice (Oryra sativa) (setting [14]), 0%; in test [10] (setting [14]), 40%; in test [11] (setting [14]) it was 0%. Besides, the pest or weed control at 500 g/ha in test [12] (Preemergence, visual injury vs untreated controls after approximately 10 d, read-out: Pigweed plant response rating (0 to 100 scale where 0 is no effect and 100 is complete control)) turned out to be 0%.
